Source: patent publication US4202876A, “Investigating body function” (The Radiochemical Centre Limited, priority 1977, dated 1980)

Columns and labels:
[1] = Whole-body excretion studies in rats after oral administration (whole-body counts, bi-exponential fit); type: in vivo, rat; details: for b (amplitude of second component) / c (constant; percentage predicted as never being excreted) / x (rate constant of first component) / y (rate constant of second component): Retention(t)=ae^-xt+be^-yt+c; for a (amplitude of first component, Retention(t)=ae^-xt+be^-yt+c): whole-body retention as % of initial counts, 6-8 days
Protocol: Whole-body excretion studies in rats over a period of 8 days after oral administration of compounds i to viii indicate that excretion is delayed with respect to a non-absorbable radioactive maker, ^131 I-polyvinylpyrollidone.
For each of the eight compounds under investigation, approximately 10-15 μCi was administered via an intragastric tube to rats. Whole-body counts were determined immediately after administration and at intervals during the following 6-8 days. A whole-body standard permitted corrections for radioactive decay and variations in counter efficiency.
Whole-body retention is expressed as a percentage of the counts determined immediately after administration.
Retention (t)=ae^-xt +be^-yt +c (1)

[2] = Clinical whole-body counting of 75Se retention after oral administration; type: in vivo, human; details: for Retention of Selenium-75 Radioactivity: oral approx. 1 μCi
Protocol: Approximately 1 μCi of compound ii was given orally as a drink in water to four adult volunteers, two of them being normal active adult males, 35-50 years of age, and two who had received a total ileal resection more than 10 years previously. All were on a normal diet. Se-ii was administered between 10.00 am and 12 noon. Body radioactivity was then measured in a whole-body counter immediately after administering the ^75 Se-ii and subsequently at 48 hours and 7 days.

[3] = Tissue distribution studies in rats after oral administration; type: in vivo, rat; details: for whole body retention by tissue distribution (dissection): at the end of 8 days
Protocol: The pattern of tissue distribution is similar for all the compounds. At 20 hours the ^75 Se radioactivity is largely confined to the liver, gut and faeces; apart from compounds iii and iv less than 5 percent of the radioactivity is distributed among other organs.

[4] = Biliary collection of 75Se radioactivity after intravenous injection, bile-cannulated rabbit; type: in vivo
Protocol: A male rabbit (NZW×LOP; 4.8 kg) was anaesthetized with sodium pentobarbitone ("Sagatal"), intravenously injected. A tracheotomy was performed and into a jugular vein was inserted a cannula with a 3-way tap. The animal was ventilated by intermittent positive pressure and anaesthesia maintained by intravenous administration of pentobarbitone as required. A midline ventral incision was made in the abdominal wall and the liver reflected to reveal the gall bladder, cystic duct and the common bile duct. After ligation of the cystic duct the common bile duct was cannulated for the collection of bile.
After a period of stabilization 1 ml of a solution of 19-methyl-[^75 Se]selenocholesterol (0.01 mg; 12 mCi) in polysorbate/normal saline was injected via the jugular cannula. Bile was collected as a series of 15-minute samples in preweighed tubes. After collection each sample was weighed and counted for ^75 Se radioactivity. The flow of bile, initially at 3.4 ml/15 minutes, declined to 1.5 ml/15 minutes after 61/2 hours. During this period 56.65 g of bile was collected containing approximately 100 μCi of ^75 Se radioactivity (about 1 percent of the injected dose).

[5] = Intravenous administration to humans with the object of adrenal visualisation; type: in vivo, human
Source text: It was surmised that 19-methyl-^75 Se selenocholesterol was being converted to analogues of bile salts in which a methylseleno group was attached to the C19 carbon atom.

[6] = Biliary excretion studies in rats, oral mixture of 75Se-seleno bile acid and 14C-cholic acid; type: in vivo, rat
Protocol: Measurement of the ratio of the ^14 C/^75 Se radioactivity collected in a 24 hour bile sample to the ^14 C/^75 Se radioactivity administered orally gives an indication of the efficiency of absorption of the seleno bile acid as compared to ^14 C-cholic acid. Ideally, when these absorptions are the same the ratio would be 1, but as the efficiency of the adsorption seleno bile acid diminishes the ratio increases.

[7] = at 20 hours, relative to the other compounds

For `C[C@H](CC[123Te]CC(=O)O)[C@H]1CC[C@H]2[C@@H]3CC[C@@H]4C[C@H](O)CC[C@]4(C)[C@H]3C[C@H](O)[C@]12C` [viii, 3α,12α-dihydroxy-23-(carboxymethyl-[^123m Te]telluro)-24-nor-5β-cholane], the “b (amplitude of second component)” value [1] was 6.3%, the “c (constant; percentage predicted as never being excreted)” value [1] was 1.3% and the “x (rate constant of first component)” value [1] was 2.26 day⁻¹. The “y (rate constant of second component)” value [1] was 0.43 day⁻¹ and the “a (amplitude of first component, Retention(t)=ae^-xt+be^-yt+c)” value [1] was 173%.
In the case of `C[C@H](CCC[75Se]CC(=O)O)[C@H]1CC[C@H]2[C@@H]3CC[C@@H]4C[C@H](O)CC[C@]4(C)[C@H]3CC[C@]12C` [vii, 3α-hydroxy-24-(carboxymethyl-[^75 Se]seleno)-5β-cholane], the “b (amplitude of second component)” value [1] is reported as 11.8%, the “c (constant; percentage predicted as never being excreted)” value [1] is reported as 2.85% and the “x (rate constant of first component)” value [1] is reported as 2.29 day⁻¹. The “y (rate constant of second component)” value [1] was 0.44 day⁻¹ and the “a (amplitude of first component, Retention(t)=ae^-xt+be^-yt+c)” value [1] was 203%.
For `CC([75Se]CC(=O)NCC(=O)O)[C@H]1CC[C@H]2[C@@H]3[C@H](O)C[C@@H]4C[C@H](O)CC[C@]4(C)[C@H]3C[C@H](O)[C@]12C` (some centres unmarked) [vi, Glyco-22-[^75 Se]selenacholic acid], the “b (amplitude of second component)” value [1] was 7.2%, the “c (constant; percentage predicted as never being excreted)” value [1] was 0.58% and the “x (rate constant of first component)” value [1] was 1.54 day⁻¹. The “y (rate constant of second component)” value [1] was 0.54 day⁻¹ and the “a (amplitude of first component, Retention(t)=ae^-xt+be^-yt+c)” value [1] was 221%.
In the case of `CC([75Se]CC(=O)O)[C@H]1CC[C@H]2[C@@H]3[C@H](O)C[C@@H]4C[C@H](O)CC[C@]4(C)[C@H]3C[C@H](O)[C@]12C` (stereo partly drawn) [v, 3α,7α,12α-trihydroxy-20-(carboxymethyl-[^75 Se]seleno)-5β-pregnane], the “b (amplitude of second component)” value [1] is reported as 16.5%, the “c (constant; percentage predicted as never being excreted)” value [1] is reported as 0.8% and the “x (rate constant of first component)” value [1] is reported as 2.52 day⁻¹. The “y (rate constant of second component)” value [1] was 0.38 day⁻¹ and the “a (amplitude of first component, Retention(t)=ae^-xt+be^-yt+c)” value [1] was 98%.
For `C[C@H](C[75Se]CC(=O)O)[C@H]1CC[C@H]2[C@@H]3CC[C@@H]4C[C@H](O)CC[C@]4(C)[C@H]3C[C@H](O)[C@]12C` [Compound ii, 3α,12α-dihydroxy-22-(carboxymethyl-[^75 Se]seleno)-23,24-bisnor-5β-cholane], the “Retention of Selenium-75 Radioactivity” value ([2]; Ileal resection (3), 0 h) was 100%, the “Retention of Selenium-75 Radioactivity” value ([2]; Ileal resection (3), 48 hrs.) was 26% and the “Retention of Selenium-75 Radioactivity” value ([2]; Ileal resection (3), 7 days) was 7.5%. The “Retention of Selenium-75 Radioactivity” value ([2]; Ileal resection (4), 0 h, patient on drugs to slow bowel transfer) was 100%, the “Retention of Selenium-75 Radioactivity” value ([2]; Ileal resection (4), 48 hrs., patient on drugs to slow bowel transfer) was 80% and the “Retention of Selenium-75 Radioactivity” value ([2]; Ileal resection (4), 7 days, patient on drugs to slow bowel transfer) was 9.5%. The “Retention of Selenium-75 Radioactivity” value ([2]; Normal (1), 0 h) was 100%, the “Retention of Selenium-75 Radioactivity” value ([2]; Normal (1), 48 hrs.) was 80% and the “Retention of Selenium-75 Radioactivity” value ([2]; Normal (1), 7 days) was 31%. The “Retention of Selenium-75 Radioactivity” value ([2]; Normal (2), 0 h) was 100%, the “Retention of Selenium-75 Radioactivity” value ([2]; Normal (2), 48 hrs.) was 100% and the “Retention of Selenium-75 Radioactivity” value ([2]; Normal (2), 7 days) was 27%. For the same molecule, the “rate of elimination from the body” value ([2]; humans who have suffered an ileal resection) was “this rate of elimination is increased”, the “rate of elimination from the body” value ([2]; normal humans, compared with rats) was “considerably slower than it is for rats” and the “b (amplitude of second component)” value [1] was 27.6%. For the same molecule, the “c (constant; percentage predicted as never being excreted)” value [1] was 3.36%, the “x (rate constant of first component)” value [1] was 2.29 day⁻¹ and the “y (rate constant of second component)” value [1] was 0.65 day⁻¹. The “a (amplitude of first component, Retention(t)=ae^-xt+be^-yt+c)” value [1] was 190%, the “75Se radioactivity in the faeces” value [3, 7] was “a very much small percentage of ^75 Se radioactivity in the faeces” and the “75Se radioactivity in the small bowel” value [3, 7] was “a correspondingly larger proportion in the small bowel”.
With `C[75Se]C[C@]12CC[C@H](O)CC1=CC[C@@H]1[C@@H]2CC[C@]2(C)[C@@H]([C@H](C)CCCC(C)C)CC[C@@H]12` [19-methyl-[^75 Se]selenocholesterol] the “75Se radioactivity collected in bile (of injected dose)” value ([4]; i.v. via jugular cannula, bile collected 6 1/2 hours, 390 min) was “about 1%”, the “75Se radioactivity collected in bile” value ([4]; i.v., 12 mCi injected, 56.65 g bile over 6 1/2 hours) was “approximately 100 μCi” and the “localisation of selenium-75 radioactivity” value [5] was “concentrated in the enterohepatic system”. The “metabolism compared with cholesterol” value [5] was “appeared to parallel that of cholesterol”.
In the case of `C[C@H](CC[75Se]CCC(=O)O)[C@H]1CC[C@H]2[C@@H]3[C@H](O)C[C@@H]4C[C@H](O)CC[C@]4(C)[C@H]3C[C@H](O)[C@]12C` [iv, 3α,7α,12α-trihydroxy-23-(β-carboxyethyl-[^75 Se]seleno)-24-nor-5β-cholane], the “b (amplitude of second component)” value [1] is reported as 42.5%, the “c (constant; percentage predicted as never being excreted)” value [1] is reported as 15.5% and the “x (rate constant of first component)” value [1] is reported as 2.77 day⁻¹. For the same molecule, the “y (rate constant of second component)” value [1] was 0.66 day⁻¹, the “a (amplitude of first component, Retention(t)=ae^-xt+be^-yt+c)” value [1] was 260% and the “whole body retention by tissue distribution (dissection)” value [3] was roughly 5.5%. For the same molecule, the “whole body retention by tissue distribution (dissection)” value ([3]; listed as tri-hydroxy compound) was “approximately 5.5%”.
For `C[C@H](CC[75Se]CCC(=O)O)[C@H]1CC[C@H]2[C@@H]3[C@H](O)C[C@@H]4C[C@H](O)CC[C@]4(C)[C@H]3CC[C@]12C` [iii, 3α,7α-dihydroxy-23-(β-carboxyethyl-[^75 Se]seleno)-24-nor-5β-cholane], the “ratio of 14C/75Se radioactivity in 24 hour bile sample to 14C/75Se administered orally” value ([6]; 24 h bile, 14C-cholic acid internal marker, 1 = absorption same as cholic acid) was 54, the efficiency of absorption ([6]; compared to 14C-cholic acid) was “very much reduced absorption” and the “b (amplitude of second component)” value [1] was 37.5%. For the same molecule, the “c (constant; percentage predicted as never being excreted)” value [1] was 4.0%, the “x (rate constant of first component)” value [1] was 2.31 day⁻¹ and the “y (rate constant of second component)” value [1] was 0.53 day⁻¹. The “a (amplitude of first component, Retention(t)=ae^-xt+be^-yt+c)” value [1] was 170%.
